In brackets after ≈: the same amount, converted by molar mass.
Assays:
[1] = target: T1, Untagged Pseudomonas LpxC (Pseudomonas aeruginosa, UniProt P47205); test: P. aeruginosa Enzymatic Assay (LpxC deacetylase, RapidFire MS); format: biochemical
T1 construct: made in house; host or cells: E. coli
T1 sequence (P47205 1-303): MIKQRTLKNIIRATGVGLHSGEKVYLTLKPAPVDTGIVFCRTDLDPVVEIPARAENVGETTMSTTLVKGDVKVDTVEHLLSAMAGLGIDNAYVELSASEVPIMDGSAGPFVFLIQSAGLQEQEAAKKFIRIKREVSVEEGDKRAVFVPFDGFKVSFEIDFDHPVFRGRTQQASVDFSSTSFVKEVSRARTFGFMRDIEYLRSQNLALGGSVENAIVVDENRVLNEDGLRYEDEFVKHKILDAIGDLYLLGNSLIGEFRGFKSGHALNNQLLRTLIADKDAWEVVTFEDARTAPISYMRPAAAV
Source text: P. aeruginosa Enzymatic Assay
Untagged Pseudomonas LpxC was expressed in E. coli from Psuedomonas aeruginosa PAO1 and purified from Q-Sepharose 1 and Q-Sepharose 2 columns. UDP-3-O—(R-3-hydroxymyristoyl)-N-Acetylglucosamine Substrate was obtained through a custom synthesis from Alberta Innovates Technology Futures.
Untagged Pseudomonas LpxC is a deacetylase, which can remove an acetyl-group from UDP-3-O—(R-3-hydroxymyristoyl)-N-Acetylglucosamine to result in a product that is 42 Daltons less than the original acetylated substrate. Direct detection of the deactylated product and acetylated substrate is accomplished through an Agilent RapidFire v. 3.4/Sciex 4000 Q-Trap RF-MS instrument.
Following a 30 minute incubation, 20 μL of 2× substrate [7.680 buffer+5 uL of UDP-3-O—(R-3-hydroxymyristoyl)-N-Acetylglucosamine (at 10 mM Stock)] was added and incubated for 25 minutes. 10 uL of 1N HCl was added to quench the reaction. The plate was loaded onto the Agilent RapidFire v. 3.4/Sciex 4000 Q-Trap RF-MS instrument for analysis, using a C4 SPE cartridge and 2 mM ammonium acetate in 100 v/v water as the aqueous eluent and 5 mM ammonium acetate in […] as the organic eluent. For dose response experiments, % conversion were determined from the substrate and product analytes and normalized data were fit by ABASE/XC50 using the equation y=a+(b−a)/(1+(10^x/10^c)^d), where a is the minimum % activity, b is the maximum % activity, c is the pIC50, and d is the Hill slope. ^1Langsdorf, Erik F. et al. Screening for Antibacterial Inhibitors of the UDP-3-O—(R-3-Hydroxymyristoyl)-N-Acetylglucosamine Deacetylase (LpxC) Using a High-Throughput Mass

E. coli 7623 = test: Minimum Inhibitory Concentration Assay (broth microdilution, CLSI); format: cell-based; conditions: Escherichia coli; strain 7623, broth microdilution; read-out: E. coli 7623 MIC
Summary of the method: (§1)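 CLSI broth microdilution for aerobic bacteria; compounds serially diluted in the recommended broth over a final range of 0.125–128 mcg/mL, final DMSO below 1%. MIC read as the lowest concentration inhibiting visible growth.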

K. pneumoniae 1161486 = test: as above; format: cell-based; conditions: Klebsiella pneumoniae; strain 1161486, broth microdilution; read-out: K. pneumoniae 1161486 MIC
Summary of the method: as §1

P. aeruginosa PA01 = test: as above; format: cell-based; conditions: Pseudomonas aeruginosa; strain PA01, broth microdilution; read-out: P. aeruginosa PA01 MIC
Summary of the method: as §1

| SMILES | IC50 [1] | MIC (E. coli 7623) | MIC (K. pneumoniae 1161486) | MIC (P. aeruginosa PA01) |
| --- | --- | --- | --- | --- |
| Cc1ccc(-c2cc(F)c3c(=O)n(CC[C@](C)(C(=O)NO)S(C)(=O)=O)cnc3c2)cc1 [Example 17, (2R)-4-[5-fluoro-7-(4-methylphenyl)-4-oxo-3,4-dihydroquinazolin-3-yl]-N-hydroxy-2-methanesulfonyl-2-methylbutanamide] | 1 nM | 0.25 µg/mL (≈ 0.559 µM) | 1 µg/mL (≈ 2.23 µM) | 16 µg/mL (≈ 35.8 µM) |
| C[C@@](CCN1CCc2cc(-c3ccccc3F)ccc2C1=O)(C(=O)NO)S(C)(=O)=O [Example 91, (2R)-4-[6-(2-fluorophenyl)-1-oxo-1,2,3,4-tetrahydroisoquinolin-2-yl]-N-hydroxy-2-methanesulfonyl-2-methylbutanamide] | 1 nM | 0.5 µg/mL (≈ 1.15 µM) | 0.5 µg/mL (≈ 1.15 µM) | 4 µg/mL (≈ 9.21 µM) |
| C[C@@](CCn1ccc2cc(-c3ccc(CNC4CC4)cc3)ccc2c1=O)(C(=O)NO)S(C)(=O)=O [Example 75, (2R)-4-(6-{4-[(cyclopropylamino)methyl]phenyl}-1-oxo-1,2-dihydroisoquinolin-2-yl)-N-hydroxy-2-methanesulfonyl-2-methylbutanamide] | 1 nM | 0.06 µg/mL (≈ 0.124 µM) | 0.063 µg/mL (≈ 0.13 µM) | 0.25 µg/mL (≈ 0.517 µM) |

From patent publication US10781184B2, “Substituted benzazinones as antibacterial compounds” (GlaxoSmithKline Intellectual Property Development Limited, priority 2015, dated 2020)
